Patent US20160113931A1, “Method of treating and/or preventing neurodegenerative diseases” (University of Macau, priority 2014, published 2016)
“Also recorded” adds a separate entry of the source.

Test system: zebrafish
Experiment: MPTP-induced dopaminergic neuron loss in zebrafish (TH whole-mount immunostaining)
Type: in vivo, Danio rerio
Conditions: for TH+ density, percentage of the control group: 360 μM MPTP 48 h, 1 dpf zebrafish
Experimental: Zebrafish at 1 dpf were exposed to BHDPC (3, 10, 30 μM) with or without MPTP for 48 h. Then fish were fixed for whole mount immunostaining. The morphology change of dopaminergic neurons in zebrafish brain was indicated by immunostaining with antibody against tyrosine hydroxylase (TH). Statistical analysis of TH density was accessed in each 10 fish/group. […] Zebrafish at 1 dpf were exposed to different concentrations of BHDPC with or without MPTP for 48 h. Then fish were fixed for whole mount immunostaining.
The AB strain of wild type zebrafish (Danio rerio) was maintained as described in the Zebrafish Handbook. Zebrafish were staged by days post fertilization […]. For breeding, groups of male and female (3:2) adult zebrafish were placed in 10-L plastic aquarium equipped with spawning nets in the evening. In the following morning, eggs were collected from the breeding group tanks. Normally developed fertilized eggs were selected under a stereomicroscope for further studies. The MPTP manipulation was performed with appropriate safety precautions and all MPTP-containing water was bleached.
Whole-mount immunostaining in zebrafish was performed as previously described. 3 dpf Zebrafish larvae were fixed with 4% paraformaldehyde in PBS for 30 min, […] (TH) staining was performed as previously described. Briefly, zebrafish were fixed in 4% paraformaldehyde in PBS for 5 h. Fixed samples were blocked (2% lamb serum and 0.1% BSA in PBST) for 1 h at room temperature. A mouse monoclonal anti-tyrosine hydroxylase (TH) antibody (Millipore, Billerica, MD, USA) was used as the primary antibody and incubated with samples overnight at 4° C. On the next day, samples were washed six times with PBST (each wash lasted 30 min), followed by incubation with Alexa Fluor® 488 goat anti-mouse antibodies. After immunostaining, zebrafish were mounted with 3.5% methylcellulose and photographed. Semi-quantification of the area of TH^+ cells was assessed by an investigator, unaware of the drug treatment, using Image-J software. Results are expressed as percentage of area of TH^+ cells in untreated normal control groups.
In this example, the in vivo animal model was used to determine the neuroprotective effect of BHDPC. Anti-tyrosine hydroxylase (TH) whole mount immunostaining was used to determine dopaminergic neuronal populations in zebrafish larvae (FIG. 15A). TH activity is the key enzyme responsible for dopamine biosynthesis in the CNS. […] The dopamine reuptake inhibitor nomifensine (Nom), which protected against MPTP-induced neurotoxicity in vivo was used as a positive control. The treatment of larvae with 30 μM of nomifensine, a positive control drug attenuated MPTP-induced neurotoxicity, with TH^+ density […] by 30% compared to the MPTP group.
L-deprenyl, which is a substituted phenethylamine used in treatment of early Parkinson's disease, was used as a positive control.

For `COc1cc(C2C(C(=O)OCc3ccccc3)=C(C)Nc3nnnn32)ccc1O` (centres unmarked) [BHDPC, benzyl 7-(4-hydroxy-3-methoxyphenyl)-5-methyl-4,7-dihydrotetrazolo[1,5-a]pyrimidine-6-carboxylate], the “TH+ density, percentage of the control group” value (from here on “TH+ density, percentage”) (3 μM) was 66%, the “TH+ density, percentage” value (10 μM) was 74% and the “TH+ density, percentage” value (30 μM) was 90%. For the same compound, the “MPTP-induced TH+ density decrease (FIG. 15B)” value (3 and 10 μM, MPTP 48 h, dose-dependent) was “rescue dramatically; also recorded: protected against MPTP-induced DA neuron loss” and the “toxicity in the vital organs” value (BHDPC treated zebrafish compared to control groups) was “No toxicity was observed”.
